Measured values published in patent publication US20250051277A1, “DELIVERY OF THERAPEUTIC ALKALOID COMPOUNDS” (Sensorium Therapeutics, Inc., priority 2021, published 2025).
Like-named read-outs stand apart in the source and are kept apart here.

What was measured:
[1] = Plasma Stability Assay of Example A4, rat plasma; conditions: 37° C., 10 μM
[2] = Plasma Stability Assay of Example A4, human plasma; conditions: 37° C., 10 μM
[3] = for 001 brain levels quantifiable up to: rat
Method: Brain samples were homogenized with PBS (W/V, 1:3). Plasma/brain samples were mixed with acetonitrile containing internal standard. The samples were vortexed then centrifuged at 4 degrees Celsius for 15 minutes. The supernatant was diluted with water (1:2 V/V) and analyzed by LC/MS/MS for quantitative analysis. […] Area under the curve (AUC) was calculated and divided by dose to account for molecular weight difference of prodrug and metabolite (AUC/D).

[4] = Pharmacokinetics of 043 and 001 in mice after oral 043 (75 mg/kg); format: in vivo, male C57BL/6 mice; conditions: analyte = label, single oral administration of 043, 75 mg/kg, male C57BL/6 mice
Method: Total twelve male mice were used in this study. […] The formulation vehicle used was normal saline.
The plasma and brain concentration-time data of 043 and 001 was used for the pharmacokinetic analysis.
The extraction procedure for plasma/brain samples and the spiked plasma/brain calibration standards were identical:
A 25 μL of study sample plasma/brain (dilution applied to some samples) or spiked plasma calibration standard was added to individual pre-labeled micro-centrifuge tubes followed by 100 μL of internal standard prepared in acetonitrile (Glipizide-500 ng/mL) was added except for blank, where 100 μL of acetonitrile was added. Samples were vortexed for 5 minutes. Samples were centrifuged for 10 minutes at a speed of 4000 rpm at 4° C. Following centrifugation, 100 μL of clear supernatant was transferred in 96 well plates and analyzed using LC-MS/MS.

[5] = Plasma Stability Assay of Example A3, mouse plasma; conditions: 5 μM, 37° C., % of prodrug compound remaining
[6] = Method: Male C57/BL6 mice were used to evaluate each compound, with n=3 mice/time point.
Animals were administered through intravenous route with solution formulation at 2 mg/kg dose. […] Following blood collection, immediately, animals were sacrificed, and vena-cava was cut open and blood was drained. […] Brain samples were collected from set of three mice at each time point. […] Brain samples were homogenized using 2 volumes of ice-cold PBS (pH-7.4) of brain weight. […] Concentrations of compound (or compound and metabolite) in mouse plasma and brain samples were determined by fit for purpose LC-MS/MS method.

[7] = Plasma Stability Assay of Example A3, human plasma; conditions: 5 μM, 37° C., % of prodrug compound remaining
[8] = Hydrolysis Assay of Example A1 (conversion by LCMS); format: physicochemical; conditions: for Conversion (%) / Notes (hydrolysis): 0.5 mM, 0-24 h
Method: The hydrolysis kinetics was under a certain temperature and measured by LCMS at a certain time interval. The corresponding LCMS chromatograms were recorded and the conversions were calculated. The hydrolysis conditions and the data were summarized in below table. LCMS spectra were obtained using Agilent 1200/G1956A or SHIMADZU LCMS-2020. Standard LCMS conditions were as follows (running time 1.55 minutes): • Acidic condition: Mobile Phase A: 0.0375% TFA in water (v/v). Mobile Phase B: 0.01875% TFA in acetonitrile (v/v); Column: Kinetex EVO C18 30*2.1 mm, 5 μm. • Basic condition: Mobile Phase A: 0.025% NH3·H2O in water (v/v). Mobile Phase B: Acetonitrile; Column: Kinetex EVO C18 2.1×30 mm, 5 μm. • Conversion (%)=peak area 1/(peak area 1+peak area 2)*100%, peak area 1 is the integration of hydrolyzed product, peak area 2 is the integration of starting material.

[9] = Oral dose pharmacokinetic study in mice (10 mg/kg); format: in vivo, male C57BL/6 mice
Description: The formulation vehicle used was normal saline.

[10] = in vivo; cited from earlier work
[11] = 2 mg/kg iv of labelled compound, mice
[12] = 10 mg/kg po of labelled compound, mice

## COc1ccc([C@@]23CCC(=O)C[C@@H]2N(C)CC3)cc1OC [Compound 001, mesembrine, reference compound]
[1]; time 0.0 min
  Compound 001 (%) (metabolite mesembrine), Rat Plasma: 100.0%
[1]; time 10 min
  Compound 001 (%) (metabolite mesembrine), Rat Plasma: >99%
[1]; time 30 min
  Compound 001 (%) (metabolite mesembrine), Rat Plasma: >99%
[1]; time 60 min
  Compound 001 (%) (metabolite mesembrine), Rat Plasma: 97.3%
[1]; time 120 min
  Compound 001 (%) (metabolite mesembrine), Rat Plasma: >99%
[1]; time 240 min
  Compound 001 (%) (metabolite mesembrine), Rat Plasma: 98.3%
[2]; time 0.0 min
  Compound 001 (%) (metabolite mesembrine), Human Plasma: 100.0%
[2]; time 10 min
  Compound 001 (%) (metabolite mesembrine), Human Plasma: >99%
[2]; time 30 min
  Compound 001 (%) (metabolite mesembrine), Human Plasma: >99%
[2]; time 60 min
  Compound 001 (%) (metabolite mesembrine), Human Plasma: >99%
[2]; time 120 min
  Compound 001 (%) (metabolite mesembrine), Human Plasma: >99%
[2]; time 240 min
  Compound 001 (%) (metabolite mesembrine), Human Plasma: >99%
[3]; 2 mg/kg iv of labelled compound
  001 brain levels quantifiable up to: 2 h
[4]
  Brain concentrations quantifiable up to: 4 h
  brain exposure-Kp: 2.55
[4]; brain
  AUClast: 0.49804 µg·h/mL
  Cmax: 0.60212 µg/mL
  Tmax: 30 min
[4]; plasma
  AUClast: 0.19538 µg·h/mL
  Cmax: 0.23083 µg/mL
  Tmax: 30 min
[5]; 0 min
  Mouse Plasma Prodrug (%): 100.0%
[5]; 15 min
  Mouse Plasma Prodrug (%): >99%
[5]; 30 min
  Mouse Plasma Prodrug (%): 97.8%
[5]; 60 min
  Mouse Plasma Prodrug (%): >99%
[5]; 120 min
  Mouse Plasma Prodrug (%): >99%
[5]; 240 min
  Mouse Plasma Prodrug (%): >99%
[6]; [11]
  quantifiable levels of 001 in brain up to: 60 min
  quantifiable levels of 001 in plasma up to: 30 min
[6]; at 60, 120, 180 min, 2 mg/kg iv of 001, mice
  Plasma levels of 001: not detectable
[6]; at 120, 180 min, 2 mg/kg iv of 001, mice
  Brain levels of 001: not detectable
[7]; 0 min
  Human Plasma Prodrug (%): 100.0%
[7]; 15 min
  Human Plasma Prodrug (%): >99%
[7]; 30 min
  Human Plasma Prodrug (%): >99%
[7]; 60 min
  Human Plasma Prodrug (%): >99%
[7]; 120 min
  Human Plasma Prodrug (%): >99%
[7]; 240 min
  Human Plasma Prodrug (%): >99%
[8]; pH 2.0 in 0.01 M HCl to pH 7.4 in 20 mM PBS, 25° C. to 40° C.
  hydrolysis in the Hydrolysis Assay: did not further hydrolyze
[8]; pH = 2.0, 25° C., 0.01M HCl
  Conversion (%): 0%
  Notes (hydrolysis): Stable
[8]; pH = 2.0, 40° C., 0.01M HCl
  Conversion (%): 0%
  Notes (hydrolysis): Stable
[8]; pH = 7.4, 25° C., PBS (20 mM)
  Conversion (%): 0%
  Notes (hydrolysis): Stable
[8]; pH = 7.4, 40° C., PBS (20 mM)
  Conversion (%): 0%
  Notes (hydrolysis): Stable
[9]; [12]
  001 quantifiable in brain up to: 60 min
  001 quantifiable in plasma up to: 2 h
[9]; at 90, 120, 180 min, 10 mg/kg po of 001, mice
  Brain levels of 001: not detectable
[9]; at 180 min, 10 mg/kg po of 001, mice
  Plasma levels of 001: not detectable
[9]; mice, oral 10 mg/kg
  bioavailability (% F): < 10%

## CCC(C)CC(=O)OC1=C[C@@H]2N(C)CC[C@]2(c2ccc(OC)c(OC)c2)CC1 (stereo partly drawn) [Compound 316, [(3aS,7aS)-3a-(3,4-dimethoxyphenyl)-1-methyl-3,4,5,7a-tetrahydro-2H-indol-6-yl]3-methyl pentanoate]
[3]; 2 mg/kg iv in rat
  conversion of prodrug to 001 in vivo: converts to 001 in vivo in rat
[3]; in vivo
  001 brain levels quantifiable up to: 3 h

## (−) mesembrine
[10]
  half-life in plasma: less than 2 hours
